Measured values as given in patent US20050123553A1, “Amyloid beta-peptide and methods of use” (priority 2003, published 2005).
Ends that are not written are not given here.

How the values were obtained:
[1] = tested on: Aβ1-42-reactive T-cell lines; test: Epitope mapping / proliferation of Aβ1-42-reactive T-cell lines; format: cell-based, human; conditions: for Distribution of Aβ T-cell epitopes: Number of T-cell lines / Distribution of Aβ T-cell epitopes: percent: lines from 24 subjects, fine mapping with 15 amino acid overlapping peptides
Method: Epitope specificity of these 3 T-cell lines using 5 overlapping peptides within Aβ15-42 was further investigated.
(§1) T-cell lines were then supplemented with 10 μg/ml IL-2 after 48 hours and every 2 days thereafter until they were completely resting. T-cell proliferation was measured 72 hours after stimulation following a 12 hr incubation with [^3H]-thymidine. Supernatants were collected 48 hr after T-cell stimulation, and antigen-induced cytokine production was measured by sandwich ELISA. Recommended pairs of antibodies (coating and detecting) for IL-10 (R&D, Minneapolis, Minn.), INF-γ. Endogen, Woburn, Mass.), IL-13 (PharMingen, (San Diego, Calif.), and TGF-β (Promega, Madison, Wis.) were used according to the manufacturer's instructions. Surface and intracellular staining was performed on Aβ-reactive T-cells after stimulation. All antibodies were purchased from BD Biosciences (San Diego, Calif.) and staining was performed according to the manufacturer's instructions.

Aβ-reactive T-cell lines = test: Cytokine secretion of Aβ-reactive T-cell lines (sandwich ELISA); format: cell-based, human
Method: as §1

Aβ-reactive T cells = test: FACS of activation marker and cytokine expression in an Aβ-reactive T-cell line; format: cell-based, human; conditions: 30 hr after stimulation with irradiated autologous PBMCs
Method: To further determine the phenotype of Aβ-reactive T cells, a representative T-cell line also was tested by FACS for Th1 and Th2 cytokine expression. […] We further asked whether the cytokine profiles represented primarily Th2 lineages by testing for the expression of INF-γ and IL-13/IL-5 in the same cells.
as §1

[2] = tested on: Primary cultures of microglia; test: Aβ uptake and motility of microglia treated with IFN-γ (live confocal imaging); format: cell-based, mouse
Method: The meningoencephailis we observed was completely dependent on expression of IFN-g in the CNS. […] We therefore established an in vitro system to examine early events associated with microglia activation by IFN-γ and their contribution to uptake of Aβ and specific T-cell activation. Primary cultures of microglia were prepared and live images were obtained by a confocal microscope, as described in Methods. FITC-labeled Aβ was added to the culture for 30 min, cultures were carefully washed, and live images were taken for 30 minutes. […] (FIG. 10B).
Preparation of cultures of mouse brain microglia: Glial cultures were prepared as described (JI). […]
Aβ uptake and T-cell stimulation by microglia: PE-labeled microglial cells were cultured in MatTek culture dishes (Ashland, Mass.) for 24 hours in the DMEM-FCS medium. […] Live images were then taken for 30 min with 20 sec intervals by a Zeiss Laser Scanning Confocal Microscope and analyzed by 3D analysis software (Zeiss, Thornwood, N.Y.). […]

[3] = tested on: microglia and resting Aβ-reactive T cells; test: Co-culture of microglia and resting Aβ-reactive T cells; format: cell-based, mouse
Method: Microglial cells were sorted and cultured for 12 hours in the presence and absence of IFN-γ. […] Representative areas were then extracted (shown in higher power) and analyzed for the pattern of T-cell migration. In the IFN-γ-treated culture, T cells were attracted to microglial cells, indicated by the sharp turns between the cells (FIG. 11B), and made a significant higher average number of contacts with the microglial cells, as compared with the untreated microglial culture (about 2.1 versus about 0.5, P<0.001) (FIG. 11B). […] These contacts are short time synapse formations characteristics of an early event during T-cell stimulation.
Preparation of cultures of mouse brain microglia: Glial cultures were prepared as described (JI). Briefly, cells were dissociated from the cerebral cortex of 1-day-old C57BL/6 mice after careful removal of meninges tissues, and were cultured in poly-D-lysine (PDL)-coated tissue culture flasks in medium supplemented with Dulbecco's modified Eagle's medium (DMEM), 4 mM L-glutamine, 50 U/ml penicillin, […] streptomycin, 10 mM HEPES, 1 mM sodium pyruvate, 10 mM nonessential amino acids, […] 2-mercaptoethanol (Sigma, St Louis, Mo.), and 10% fetal calf serum (FCS). On day 7, cultures were incubated with 100 pg/ml IFN-γ for 72 hours and on day 10, the entire glial culture was trypsinized and microglia were labeled with PE-conjugated anti-CD11b and sorted using FACS Vantage SE Cell Sorter.
Aβ uptake and T-cell stimulation by microglia: PE-labeled microglial cells were cultured in MatTek culture dishes (Ashland, Mass.) for 24 hours in the DMEM-FCS medium. […] Live images were then taken for 30 min with 20 sec intervals by a Zeiss Laser Scanning Confocal Microscope and analyzed by 3D analysis software (Zeiss, Thornwood, N.Y.). For the microglia-T-cell coculture experiments, Aβ-reactive T cells were generated as described and labeled with Alexa Flour 488-conjugated anti-mouse CD4. Resting cells were added to the microglia culture together with Aβ1-42.

[4] = tested on: peripheral blood mononuclear cells; test: Primary stimulation of PBMCs with αCD3/CD28 or glatiramer acetate ([3H]thymidine proliferation); format: cell-based, human
Method: In this study, αCD3/CD28 stimulation was measured as follows. PBMCs were cultured with 1 μg/ml soluble αCD3 plus αCD28 or cell culture medium alone, pulsed with [^3H] thymidine on day 2 after stimulation and incorporation measured 12 hr later. For glatiramer acetate stimulation, cells were cultured with 50 μg/ml GA or cell culture medium alone, and pulsed with [^3H] thymidine on day 6. Mean cpm=average cpm for each group. The average cpm for cells with culture medium alone was 825. […] Proliferative responses were calculated from these subjects. Two-tailed p values were calculated for the mean cpm using the alternate Welch test, assuming Gaussion populations with unequal SD's.
Primary stimulation with αCD3/CD28 or GA: For […] stimulation frozen PBMCs (2×10^5 cells/well) were cultured in 5 wells (U-bottom 96-well plate) in the presence of 1 μg/ml soluble αCD3 plus αCD28 and in additional 5 wells with cell culture medium alone, pulsed with […] thymidine on day 2 after stimulation and incorporation measured 12 hr later. For glatiramer acetate stimulation, fresh PBMCs were cultured in 5 wells with 50 μg/ml GA or cell culture medium alone, pulsed with [^3H] thymidine on day 6, and incorporation measured 12 hr later.

Aβ16-30-specific T cells = test: Proliferation of Aβ16-30-specific T cells with alanine/glycine-substituted peptides; format: cell-based, human; conditions: 72 hr
Excerpt: Because the T-cell epitopes were most frequently localized to Aβ16-30, we further mapped this epitope for each of its constituent amino acids by using alanine-substituted peptides in the T-cell proliferation assay (the naturally occurring alanines at positions 21 and 30 were changed to glycines). […] Substitution of lysine-16, alanine-21, serine-26 or aspargine-27 increased T-cell proliferation by more than 2-fold (Table 4).
In this experiment, T cells specific to Aβ16-30 were stimulated in the presence of alanine/glycine substituted peptides and autologous PBMCs. T-cell proliferation was measured by [^3H]-thymidine incorporation 72 hr after stimulation. Numbers represent average cpm of each antigen concentration tested (average cpm in the absence of antigen was 911).
as §1

[5] = tested on: popliteal draining lymph nodes (PLN) T cells; test: Lymph node T-cell proliferation after immunization of mice with Aβ in CFA; format: cell-based, mouse
[6] = Fibril formation by quasielastic light-scattering spectroscopy (QLS); format: physicochemical; conditions: phosphate buffer pH 7.4, 3 samples of 10 μg/ml, 5 consecutive days
Method: Fibril formation was measured in 3 equivalent samples of 10 μg/ml Aβ for 5 consecutive days. […] Nested Aβ peptides (Aβ1-15, Aβ4-18, Aβ7-21, Aβ10-24, Aβ13-27, Aβ16-30, Aβ19-33, Aβ22-36, Aβ25-39, Aβ28-42) and alanine/glycine-substituted peptides were synthesized at Biosource International (Hopkinton, Mass.). Aβ peptides used for T-cell assays were dissolved in DMSO (2 mg/ml). Glatiramer acetate (GA) was obtained at the Brigham and Women's Hospital pharmacy.

[7] = αCD3/CD28 1 μg/ml pulsed day 2, GA 50 μg/ml pulsed day 6
[8] = 48 hr after stimulation, T-cell lines 1, 2, 3
[9] = App Tg, C57BL6, 12 days after imm.

Method for APP/IFN-g Tg mice: To determine whether carrying the IA^s allele is sufficient to induce T-cell activation and migration to the CNS of APP-tg mice, B6SJLF1 APP-tg mice line J20, see Methods) were immunized with Aβ10-24 in CFA followed by intravenous injection of PT at the time of immunization and 48 hr later.
APP/IFN-γ tg mice that were immunized with Aβb 10-24 were analyzed by immunohistochemistry 20 and 30 days after immunization for immune infiltrates associated with Aβ plaques.
Immunization and measurement of immune responses: Mice were immunized by footpad injection if sacrificed on day 12, for longer periods mice were injected in the flanks. Each mouse received 100 ml of antigen (1 mg/ml), emulsified in an equal volume of complete Freund's adjuvant (CFA). Mice were also injected intravenously with 150 ng pertussis toxin at the time of immunization and 48 hours later.
Immunohistochemistry and imaging: Cryosections (6 μm) from brains of APP-Tg+ mice were placed onto glass slides and fixed with ice-cold methanol for 2 min followed by 2% PFA at RT for 4 min. Sections were washed once with distilled water for 5 min and twice with PBS containing 0.05% Tween-20. Sections were then incubated for 1 hour at RT with blocking buffer (PBS containing 3% normal goat serum and 2% bovine serum albumin).

Substance: YEVHHQKLVFFAEDV [Aβ10-24]
- Immune infiltrates in the spinal cord (APP/IFN-g Tg mice; mouse, in vivo): not observed
- meningoencephalitis (APP/IFN-g Tg mice; mouse, in vivo): strong meningoencephalitis

Substance: Aβ15-42: overlapping C-terminal fragment of Aβ1-42, residues 15-42 (QKLVFFAEDVGSNKGAIIGLMVGGVVIA; Amyloid-beta protein 42; UniProt P05067 686-713, looked up, fragment)
- Distribution of Aβ T-cell epitopes: Number of T-cell lines [1]: 22
- Distribution of Aβ T-cell epitopes: percent [1]: 92%
- Th2 response (Aβ-reactive T-cell lines): elicit a Th2 response
- expression of the CD69 activation marker on CD4+ cells (Aβ-reactive T cells): increased expression

Substance: IFN-γ: cytokine used to treat microglial cultures (100 pg/ml)
- Aβ uptake by microglia ([2]; pretreated versus untreated cultures, FITC-labeled Aβ 30 min): significantly enhanced
- filipodia formation (microglia motility) ([2]; treated versus untreated cultures): longer and occurred with higher frequency
- average number of contacts of T cells with the microglial cells ([3]; IFN-γ-treated culture): about 2.1
- motility of the T cells ([3]; IFN-γ-treated versus untreated culture): significant increase
- density of T cells on microglia ([3]; IFN-γ-treated versus untreated microglia, Aβ1-42 as antigen): higher density

Substance: Glatiramer acetate
- subjects that showed proliferation ([4]; all groups tested, 50 μg/ml GA): 90%
- Proliferation, Mean cpm ± SEM, Adult [4, 7]: 35,342 ± 7,893 cpm
- Proliferation, Mean cpm ± SEM, Alzheimer's disease subjects [4, 7]: 19,403 ± 3,078 cpm
- Proliferation, Mean cpm ± SEM, Elderly [4, 7]: 27,311 ± 4,781 cpm

Substance: Aβ1-28: overlapping N-terminal fragment of Aβ1-42, residues 1-28
- Distribution of Aβ T-cell epitopes: Number of T-cell lines [1]: 2
- Distribution of Aβ T-cell epitopes: percent [1]: 8%
- IFN-γ secretion (Aβ-reactive T-cell lines; [8]): not IFN-γ
- IL-13 secretion (Aβ-reactive T-cell lines; [8]): high levels

Substance: Aβ16-30: nested Aβ peptide, residues 16-30 (KLVFFAEDVGSNKGA; Amyloid-beta protein 42; UniProt P05067 687-701, looked up, fragment)
- frequency of positive T-cell lines induced [1]: highest frequency
- Distribution of Aβ T-cell epitopes: Number of T-cell lines [1]: 10
- Distribution of Aβ T-cell epitopes: percent [1]: 42%
- Th2 response (Aβ-reactive T-cell lines): elicit a Th2 response
- T-cell proliferation, average cpm (Aβ16-30-specific T cells; Peptide 0.1 μg/ml): 1648 cpm
- T-cell proliferation, average cpm (Aβ16-30-specific T cells; Peptide 1 μg/ml): 6780 cpm
- T-cell proliferation, average cpm (Aβ16-30-specific T cells; Peptide 10 μg/ml): 17339 cpm
- response compared with that induced by Aβ1-42 ([5]; 10-24 in SJL, 16-30 in C57BL6 mice): equivalent
- T-cell proliferation with overlapping peptides ([5]; C57BL6 mice, immunized with human Aβ1-42): induced proliferation
- recall proliferation of LN-derived T cells in vitro ([5]; SJL mice immunized with human Aβ10-24): not
- CD4 (cells/mm^2 ± SEM) (APP/IFN-g Tg mice; [9]): 0 cells/mm^2
- CD11b (cells/mm^2 ± SEM) (APP/IFN-g Tg mice; [9]): 0 cells/mm^2

Substance: Aβ1-40: Aβ1-40 synthetic peptide, one of the two major forms of Aβ protein [reference compound]
- reactivity of Aβ28-42-reactive T-cell lines [1]: unreactive
- fibril formation / aggregation [6]: Slight aggregation was detected in only one sample
